Assay results published in PubChem BioAssay (NCI).
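96-well plates; 48 h exposure; 5 concentrations. Endpoints by linear interpolation between flanking doses. Not reached: highest tested concentration assigned. GI50 is the concentration that inhibits growth by half. TGI is the concentration that stops growth completely.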

Assays:
Test in all cases: DTP human tumour cell line panel, 48 h
HCT-15 colon = system: HCT-15 colon
OVCAR-3 ovarian = system: OVCAR-3 ovarian
A498 renal = system: A498 renal
CCRF-CEM leukemia = system: CCRF-CEM leukemia
SK-MEL-28 melanoma = system: SK-MEL-28 melanoma
HT29 colon = system: HT29 colon
MDA-MB-231 breast = system: MDA-MB-231 breast
SR leukemia = system: SR leukemia
SF-539 CNS = system: SF-539 CNS
OVCAR-8 ovarian = system: OVCAR-8 ovarian
NCI-H522 lung = system: NCI-H522 lung
CAKI-1 renal = system: CAKI-1 renal
BT-549 breast = system: BT-549 breast
UACC-257 melanoma = system: UACC-257 melanoma
MOLT-4 leukemia = system: MOLT-4 leukemia
SN12C renal = system: SN12C renal
NCI/ADR-RES ovarian = system: NCI/ADR-RES ovarian
HCC-2998 colon = system: HCC-2998 colon
K-562 leukemia = system: K-562 leukemia
UO-31 renal = system: UO-31 renal
HS 578T breast = system: HS 578T breast
T-47D breast = system: T-47D breast
SNB-19 CNS = system: SNB-19 CNS
MDA-MB-435 = system: MDA-MB-435
DU-145 prostate = system: DU-145 prostate
HOP-92 NSCLC = system: HOP-92 NSCLC
SK-OV-3 ovarian = system: SK-OV-3 ovarian
SK-MEL-2 melanoma = system: SK-MEL-2 melanoma
NCI-H460 lung = system: NCI-H460 lung
COLO 205 colon = system: COLO 205 colon
SNB-75 CNS = system: SNB-75 CNS
HL-60(TB) leukemia = system: HL-60(TB) leukemia
OVCAR-5 ovarian = system: OVCAR-5 ovarian
RPMI-8226 leukemia = system: RPMI-8226 leukemia
PC-3 prostate = system: PC-3 prostate
NCI-H23 lung = system: NCI-H23 lung
UACC-62 melanoma = system: UACC-62 melanoma
HOP-62 NSCLC = system: HOP-62 NSCLC
OVCAR-4 ovarian = system: OVCAR-4 ovarian
EKVX NSCLC = system: EKVX NSCLC
ACHN renal = system: ACHN renal
NCI-H226 lung = system: NCI-H226 lung
TK-10 renal = system: TK-10 renal
LOX IMVI melanoma = system: LOX IMVI melanoma
A549 NSCLC = system: A549 NSCLC
U251 CNS = system: U251 CNS
MCF7 breast = system: MCF7 breast
MALME-3M melanoma = system: MALME-3M melanoma
SW-620 colon = system: SW-620 colon
786-0 renal = system: 786-0 renal
M14 melanoma = system: M14 melanoma
HCT-116 colon = system: HCT-116 colon
SF-295 CNS = system: SF-295 CNS
RXF 393 renal = system: RXF 393 renal

COc1cc(/C=C/C(=O)c2c(C)nc3ccccc3c2C)ccc1OCCCOc1cc2c(cc1OC)C(=O)N1CCC[C@H]1C=N2
GI50 (HCT-15 colon): 278 nM | TGI (HCT-15 colon): 1010 nM | GI50 (OVCAR-3 ovarian): 24.7 nM | TGI (OVCAR-3 ovarian): 55.6 nM | GI50 (A498 renal): 19.4 nM | TGI (A498 renal): 41.9 nM | TGI (CCRF-CEM leukemia): 21.5 nM | GI50 (SK-MEL-28 melanoma): 21.4 nM | TGI (SK-MEL-28 melanoma): 44 nM | GI50 (HT29 colon): 28 nM | TGI (HT29 colon): 3030 nM | GI50 (MDA-MB-231 breast): 30.6 nM | TGI (MDA-MB-231 breast): 98.5 nM | GI50 (SR leukemia): 32.1 nM | GI50 (SF-539 CNS): 23.9 nM | TGI (SF-539 CNS): 56.3 nM | GI50 (OVCAR-8 ovarian): 32.9 nM | TGI (OVCAR-8 ovarian): > 38100 nM | GI50 (NCI-H522 lung): 33.7 nM | TGI (NCI-H522 lung): 22900 nM | GI50 (CAKI-1 renal): 29.1 nM | TGI (CAKI-1 renal): 138 nM | GI50 (BT-549 breast): 14.9 nM | TGI (BT-549 breast): 42.8 nM | GI50 (UACC-257 melanoma): 26.9 nM | TGI (UACC-257 melanoma): 83.8 nM | GI50 (MOLT-4 leukemia): 32.3 nM | GI50 (SN12C renal): 35.3 nM | TGI (SN12C renal): 327 nM | GI50 (NCI/ADR-RES ovarian): 393 nM | TGI (NCI/ADR-RES ovarian): 5920 nM | GI50 (HCC-2998 colon): 18.3 nM | TGI (HCC-2998 colon): 38.6 nM | GI50 (K-562 leukemia): 11 nM | TGI (K-562 leukemia): 34.6 nM | GI50 (UO-31 renal): 58.3 nM | TGI (UO-31 renal): 817 nM | GI50 (HS 578T breast): 20.9 nM | TGI (HS 578T breast): 57.7 nM | GI50 (T-47D breast): 41 nM | GI50 (SNB-19 CNS): 187 nM | GI50 (MDA-MB-435): 19.7 nM | TGI (MDA-MB-435): 40 nM | GI50 (DU-145 prostate): 27.9 nM | TGI (DU-145 prostate): 80.2 nM | GI50 (HOP-92 NSCLC): 36.7 nM | TGI (HOP-92 NSCLC): 275 nM | GI50 (SK-OV-3 ovarian): 64 nM | TGI (SK-OV-3 ovarian): 1130 nM | GI50 (SK-MEL-2 melanoma): 87.7 nM | TGI (SK-MEL-2 melanoma): 331 nM | GI50 (NCI-H460 lung): 29.2 nM | GI50 (COLO 205 colon): 21.1 nM | TGI (COLO 205 colon): 45.3 nM | GI50 (SNB-75 CNS): 22.6 nM | TGI (SNB-75 CNS): 114 nM | GI50 (HL-60(TB) leukemia): 35.6 nM | GI50 (OVCAR-5 ovarian): 30 nM | TGI (OVCAR-5 ovarian): 86.8 nM | GI50 (RPMI-8226 leukemia): 14 nM | TGI (RPMI-8226 leukemia): 47.7 nM | GI50 (PC-3 prostate): 32.6 nM | TGI (PC-3 prostate): 1150 nM | GI50 (NCI-H23 lung): 19.7 nM | TGI (NCI-H23 lung): 45.9 nM | GI50 (UACC-62 melanoma): 17 nM | TGI (UACC-62 melanoma): 32.1 nM | GI50 (HOP-62 NSCLC): 30.3 nM | TGI (HOP-62 NSCLC): 60.9 nM | GI50 (OVCAR-4 ovarian): 44.3 nM | TGI (OVCAR-4 ovarian): 31500 nM | GI50 (EKVX NSCLC): 55.5 nM | TGI (EKVX NSCLC): 453 nM | GI50 (ACHN renal): 31.3 nM | TGI (ACHN renal): 106 nM | GI50 (NCI-H226 lung): 22.7 nM | TGI (NCI-H226 lung): 61.6 nM | GI50 (TK-10 renal): 25.7 nM | TGI (TK-10 renal): 68.2 nM | GI50 (LOX IMVI melanoma): 19.3 nM | TGI (LOX IMVI melanoma): 60.2 nM | GI50 (A549 NSCLC): 26.8 nM | TGI (A549 NSCLC): 62.3 nM

CCCCCCCCCc1cccc(N2C(N)=NC(N)=NC2(C)C)c1
TGI (U251 CNS): 620 nM | TGI (HCT-15 colon): 169 nM | TGI (MCF7 breast): > 100000 nM | TGI (OVCAR-3 ovarian): 193 nM | TGI (A498 renal): 16700 nM | TGI (MALME-3M melanoma): 8220 nM | TGI (CCRF-CEM leukemia): > 100000 nM | TGI (SK-MEL-28 melanoma): 3440 nM | TGI (HT29 colon): 1330 nM | TGI (MDA-MB-231 breast): 3370 nM | TGI (SW-620 colon): 1630 nM | TGI (SF-539 CNS): 2100 nM | TGI (OVCAR-8 ovarian): 16000 nM | TGI (786-0 renal): 1300 nM | TGI (CAKI-1 renal): 2500 nM | TGI (BT-549 breast): 3860 nM | TGI (UACC-257 melanoma): 2130 nM | TGI (SN12C renal): 2330 nM | TGI (NCI/ADR-RES ovarian): 24900 nM | TGI (UO-31 renal): > 42400 nM | TGI (HS 578T breast): 6480 nM | TGI (T-47D breast): 5750 nM | TGI (MDA-MB-435): 1830 nM | TGI (DU-145 prostate): 8400 nM | TGI (HOP-92 NSCLC): > 100000 nM | TGI (SK-OV-3 ovarian): > 33100 nM | TGI (M14 melanoma): 1530 nM | TGI (SK-MEL-2 melanoma): 4650 nM | TGI (NCI-H460 lung): > 100000 nM | TGI (COLO 205 colon): 2380 nM | TGI (SNB-75 CNS): 25900 nM | TGI (HL-60(TB) leukemia): 1710 nM | TGI (OVCAR-5 ovarian): 4670 nM | TGI (HCT-116 colon): 1150 nM | TGI (RPMI-8226 leukemia): > 100000 nM | TGI (PC-3 prostate): > 35700 nM | TGI (NCI-H23 lung): 277 nM | TGI (UACC-62 melanoma): 4070 nM | TGI (SF-295 CNS): 74600 nM | TGI (HOP-62 NSCLC): 1240 nM | TGI (OVCAR-4 ovarian): 4390 nM | TGI (EKVX NSCLC): 10500 nM | TGI (ACHN renal): 1060 nM | TGI (NCI-H226 lung): 61200 nM | TGI (TK-10 renal): 1480 nM | TGI (A549 NSCLC): 4260 nM | TGI (RXF 393 renal): > 100000 nM
